Laboratory results: the supplement of paper PMC9663587

Legend:
THZ1 = compound: CN(C)C/C=C/C(=O)Nc1ccc(C(=O)Nc2cccc(Nc3ncc(Cl)c(-c4c[nH]c5ccccc45)n3)c2)cc1 [THZ1]; test: GR value, 72 h; higher = faster growth (1 = untreated, <0 = killing);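 note: breast cancer and non-malignant breast epithelial lines, nine half-log doses, viable cells counted by Hoechst and LIVE/DEAD dye imaging versus time-zero plates and DMSO controls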
THZ531 [1] = compound: T1, CN(C)C/C=C/C(=O)Nc1ccc(C(=O)N2CCC[C@@H](Nc3ncc(Cl)c(-c4c[nH]c5ccccc45)n3)C2)cc1 [THZ531]; test: as above
BSJ-03-123 = compound: CC(=O)c1c(C)c2cnc(Nc3ccc(N4CCN(CCOCCOCCOCCNC(=O)COc5cccc6c5C(=O)N(C5CCC(=O)NC5=O)C6=O)CC4)cn3)nc2n(C2CCCC2)c1=O [BSJ-03-123]; test: as above
[2] = compound: CCc1cnn2c(NCc3ccc[n+]([O-])c3)cc(N3CCCC[C@H]3CCO)nc12; test: as above
[3] = compound: CCN1CCN(Cc2ccc(Nc3ncc(F)c(-c4cc(F)c5nc(C)n(C(C)C)c5c4)n3)nc2)CC1; test: as above
YKL-5-124 = compound: C=CC(=O)Nc1ccc(C(=O)Nc2[nH]nc3c2CN(C(=O)N[C@H](CN(C)C)c2ccccc2)C3(C)C)cc1 [YKL-5-124]; test: as above
LEE011/Ribociclib = compound: CN(C)C(=O)c1cc2cnc(Nc3ccc(N4CCNCC4)cn3)nc2n1C1CCCC1 [LEE011/Ribociclib]; test: as above
[4] = compound: CC(=O)c1c(C)c2cnc(Nc3ccc(N4CCNCC4)cn3)nc2n(C2CCCC2)c1=O; test: as above
THZ531 [5] = compound: T1, THZ531
Tivantinib/ARQ197 = compound: O=C1NC(=O)[C@@H](c2cn3c4c(cccc24)CCC3)[C@@H]1c1c[nH]c2ccccc12 [Tivantinib/ARQ197]
Paclitaxel = compound: CC(=O)O[C@H]1C(=O)[C@@]2(C)[C@H]([C@H](OC(=O)c3ccccc3)[C@]3(O)C[C@H](OC(=O)[C@H](O)[C@@H](NC(=O)c4ccccc4)c4ccccc4)C(C)=C1C3(C)C)[C@]1(OC(C)=O)CO[C@@H]1C[C@@H]2O [Paclitaxel]
senexin b = compound: CN1CCN(C(=O)c2ccc3cc(CCNc4ncnc5ccc(C#N)cc45)ccc3c2)CC1 [senexin b]
Pictilisib/GDC0941 = compound: CS(=O)(=O)N1CCN(Cc2cc3nc(-c4cccc5[nH]ncc45)nc(N4CCOCC4)c3s2)CC1 [Pictilisib/GDC0941]
AZD6738 = compound: C[C@@H]1COCCN1c1cc(C2([S@](C)(=N)=O)CC2)nc(-c2cc[nH]c3nccc2-3)n1 [AZD6738]
Ceritinib/LDK378 = compound: Cc1cc(Nc2ncc(Cl)c(Nc3ccccc3S(=O)(=O)C(C)C)n2)c(OC(C)C)cc1C1CCNCC1 [Ceritinib/LDK378]
Rucaparib = compound: CNCc1ccc(-c2[nH]c3cc(F)cc4c3c2CCNC4=O)cc1 [Rucaparib]
BSJ-01-175 = compound: CN(C)C/C=C/C(=O)Nc1ccc(O[C@@H]2CCC[C@@H](Nc3ncc(Cl)c(-c4c[nH]c5ccccc45)n3)C2)cc1 [BSJ-01-175]
Cediranib/AZD2171 = compound: COc1cc2c(Oc3ccc4[nH]c(C)cc4c3F)ncnc2cc1OCCCN1CCCC1 [Cediranib/AZD2171]
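Throughout, for GR50, 72 h: breast cancer and non-malignant breast epithelial cell lines, Deep Dye Drop or Dye Drop imaging, nine half-log doses, GR normalized to time-zero plates and DMSO-only controls.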

HCC1419
GR value (THZ1; 0.0001 µM): 0.981 GR
GR value (THZ1; 0.0003162 µM): 0.953 GR
GR value (THZ1; 0.001 µM): 1.04 GR
GR value (THZ1; 0.003162 µM): 1.03 GR
GR value (THZ1; 0.01 µM): 1.01 GR
GR value (THZ1; 0.03162 µM): 0.765 GR
GR value (THZ1; 0.1 µM): 0.228 GR
GR value (THZ1; 0.3162 µM): -0.215 GR
GR value (THZ1; 1 µM): -0.386 GR
GR value (THZ531 [1]; 0.0001 µM): 0.969 GR
GR value (THZ531 [1]; 0.0003162 µM): 1.03 GR
GR value (THZ531 [1]; 0.001 µM): 1.02 GR
GR value (THZ531 [1]; 0.003162 µM): 0.993 GR
GR value (THZ531 [1]; 0.01 µM): 1.18 GR
GR value (THZ531 [1]; 0.03162 µM): 1.08 GR
GR value (THZ531 [1]; 0.1 µM): 0.772 GR
GR value (THZ531 [1]; 0.3162 µM): 0.0179 GR
GR value (THZ531 [1]; 1 µM): -0.31 GR
GR value (BSJ-03-123; 0.001 µM): 0.753 GR
GR value (BSJ-03-123; 0.003162 µM): 0.75 GR
GR value (BSJ-03-123; 0.01 µM): 0.669 GR
GR value (BSJ-03-123; 0.03162 µM): 0.644 GR
GR value (BSJ-03-123; 0.1 µM): 0.643 GR
GR value (BSJ-03-123; 0.3162 µM): 0.527 GR
GR value (BSJ-03-123; 1 µM): 0.432 GR
GR value (BSJ-03-123; 3.162 µM): 0.443 GR
GR value (BSJ-03-123; 10 µM): 0.165 GR
GR value ([2]; 0.0001 µM): 1.15 GR
GR value ([2]; 0.0003162 µM): 1.16 GR
GR value ([2]; 0.001 µM): 1.06 GR
GR value ([2]; 0.003162 µM): 1.25 GR
GR value ([2]; 0.01 µM): 1.15 GR
GR value ([2]; 0.03162 µM): 0.199 GR
GR value ([2]; 0.1 µM): -0.384 GR
GR value ([2]; 0.3162 µM): -0.426 GR
GR value ([2]; 1 µM): -0.471 GR
GR value ([3]; 0.001 µM): 1.13 GR
GR value ([3]; 0.003162 µM): 0.823 GR
GR value ([3]; 0.01 µM): 0.714 GR
GR value ([3]; 0.03162 µM): 0.548 GR
GR value ([3]; 0.1 µM): 0.548 GR
GR value ([3]; 0.3162 µM): 0.415 GR
GR value ([3]; 1 µM): 0.487 GR
GR value ([3]; 3.162 µM): 0.303 GR
GR value ([3]; 10 µM): 0.2 GR
GR value (YKL-5-124; 0.001 µM): 0.259 GR
GR value (YKL-5-124; 0.003162 µM): 0.184 GR
GR value (YKL-5-124; 0.01 µM): 0.0618 GR
GR value (YKL-5-124; 0.03162 µM): 0.124 GR
GR value (YKL-5-124; 0.1 µM): -0.0246 GR
GR value (YKL-5-124; 0.3162 µM): -0.0463 GR
GR value (YKL-5-124; 1 µM): -0.0452 GR
GR value (YKL-5-124; 3.162 µM): -0.184 GR
GR value (YKL-5-124; 10 µM): -0.379 GR
GR value (LEE011/Ribociclib; 0.001 µM): 0.953 GR
GR value (LEE011/Ribociclib; 0.003162 µM): 0.835 GR
GR value (LEE011/Ribociclib; 0.01 µM): 0.774 GR
GR value (LEE011/Ribociclib; 0.03162 µM): 0.889 GR
GR value (LEE011/Ribociclib; 0.1 µM): 0.685 GR
GR value (LEE011/Ribociclib; 0.3162 µM): 0.58 GR
GR value (LEE011/Ribociclib; 1 µM): 0.655 GR
GR value (LEE011/Ribociclib; 3.162 µM): 0.561 GR
GR value (LEE011/Ribociclib; 10 µM): 0.525 GR
GR value ([4]; 0.0003162 µM): 1.18 GR
GR value ([4]; 0.001 µM): 1.09 GR
GR value ([4]; 0.003162 µM): 1.11 GR
GR value ([4]; 0.01 µM): 0.903 GR
GR value ([4]; 0.03162 µM): 0.828 GR
GR value ([4]; 0.1 µM): 0.612 GR
GR value ([4]; 0.3162 µM): 0.535 GR
GR value ([4]; 1 µM): 0.393 GR
GR value ([4]; 3.162 µM): 0.492 GR
GR50, 72 h (THZ531 [5]): 0.162 µM
GR50, 72 h (Tivantinib/ARQ197): 0.473 µM
GR50, 72 h (Paclitaxel): 0.00526 µM
GR50, 72 h (senexin b): 10 µM
GR50, 72 h (Pictilisib/GDC0941): 0.172 µM
GR50, 72 h (AZD6738): 8.9 µM
GR50, 72 h (Ceritinib/LDK378): 2.61 µM
GR50, 72 h (Rucaparib): > 10 µM
GR50, 72 h (BSJ-01-175): 0.541 µM
GR50, 72 h (Cediranib/AZD2171): 5.06 µM

HCC1569
GR value (THZ1; 0.0001 µM): 1.16 GR
GR value (THZ1; 0.0003162 µM): 1.14 GR
GR value (THZ1; 0.001 µM): 1.15 GR
GR value (THZ1; 0.003162 µM): 1.42 GR
GR value (THZ1; 0.01 µM): 0.908 GR
GR value (THZ1; 0.03162 µM): 0.468 GR
GR value (THZ1; 0.1 µM): -0.112 GR
GR value (THZ1; 0.3162 µM): -0.346 GR
GR value (THZ1; 1 µM): -0.325 GR
GR value (THZ531 [1]; 0.0001 µM): 1.2 GR
GR value (THZ531 [1]; 0.0003162 µM): 1.02 GR
GR value (THZ531 [1]; 0.001 µM): 1.03 GR
GR value (THZ531 [1]; 0.003162 µM): 1.15 GR
GR value (THZ531 [1]; 0.01 µM): 1.09 GR
GR value (THZ531 [1]; 0.03162 µM): 0.907 GR
GR value (THZ531 [1]; 0.1 µM): -0.21 GR
GR value (THZ531 [1]; 0.3162 µM): -0.155 GR
GR value (THZ531 [1]; 1 µM): 0.0205 GR
GR value (BSJ-03-123; 0.001 µM): 1.01 GR
GR value (BSJ-03-123; 0.003162 µM): 0.944 GR
GR value (BSJ-03-123; 0.01 µM): 1.04 GR
GR value (BSJ-03-123; 0.03162 µM): 0.922 GR
GR value (BSJ-03-123; 0.1 µM): 1.08 GR
GR value (BSJ-03-123; 0.3162 µM): 0.841 GR
GR value (BSJ-03-123; 1 µM): 0.5 GR
GR value (BSJ-03-123; 3.162 µM): 0.693 GR
GR value (BSJ-03-123; 10 µM): -0.102 GR
GR value ([2]; 0.0001 µM): 1.03 GR
GR value ([2]; 0.0003162 µM): 0.932 GR
GR value ([2]; 0.001 µM): 1.06 GR
GR value ([2]; 0.003162 µM): 0.984 GR
GR value ([2]; 0.01 µM): 0.928 GR
GR value ([2]; 0.03162 µM): -0.0195 GR
GR value ([2]; 0.1 µM): -0.224 GR
GR value ([2]; 0.3162 µM): -0.229 GR
GR value ([2]; 1 µM): -0.251 GR
GR value ([3]; 0.001 µM): 0.941 GR
GR value ([3]; 0.003162 µM): 0.932 GR
GR value ([3]; 0.01 µM): 0.955 GR
GR value ([3]; 0.03162 µM): 1.05 GR
GR value ([3]; 0.1 µM): 0.985 GR
GR value ([3]; 0.3162 µM): 1.07 GR
GR value ([3]; 1 µM): 0.822 GR
GR value ([3]; 3.162 µM): 0.639 GR
GR value ([3]; 10 µM): 0.0637 GR
GR value (YKL-5-124; 0.001 µM): 0.373 GR
GR value (YKL-5-124; 0.003162 µM): 0.541 GR
GR value (YKL-5-124; 0.01 µM): 0.302 GR
GR value (YKL-5-124; 0.03162 µM): 0.277 GR
GR value (YKL-5-124; 0.1 µM): 0.443 GR
GR value (YKL-5-124; 0.3162 µM): 0.124 GR
GR value (YKL-5-124; 1 µM): 0.175 GR
GR value (YKL-5-124; 3.162 µM): 0.0783 GR
GR value (YKL-5-124; 10 µM): -0.266 GR
GR value (LEE011/Ribociclib; 0.001 µM): 1.04 GR
GR value (LEE011/Ribociclib; 0.003162 µM): 1.1 GR
GR value (LEE011/Ribociclib; 0.01 µM): 1.07 GR
GR value (LEE011/Ribociclib; 0.03162 µM): 0.978 GR
GR value (LEE011/Ribociclib; 0.1 µM): 1.09 GR
GR value (LEE011/Ribociclib; 0.3162 µM): 0.913 GR
GR value (LEE011/Ribociclib; 1 µM): 1.26 GR
GR value (LEE011/Ribociclib; 3.162 µM): 1.32 GR
GR value (LEE011/Ribociclib; 10 µM): 0.86 GR
GR value ([4]; 0.0003162 µM): 0.957 GR
GR value ([4]; 0.001 µM): 0.991 GR
GR value ([4]; 0.003162 µM): 1.03 GR
GR value ([4]; 0.01 µM): 1.05 GR
GR value ([4]; 0.03162 µM): 0.928 GR
GR value ([4]; 0.1 µM): 0.938 GR
GR value ([4]; 0.3162 µM): 1.06 GR
GR value ([4]; 1 µM): 0.932 GR
GR value ([4]; 3.162 µM): 1.05 GR
GR50, 72 h (THZ531 [5]): 0.0461 µM
GR50, 72 h (Tivantinib/ARQ197): 0.992 µM
GR50, 72 h (Paclitaxel): 0.00208 µM
GR50, 72 h (senexin b): > 10 µM
GR50, 72 h (Pictilisib/GDC0941): 0.599 µM
GR50, 72 h (AZD6738): 3.49 µM
GR50, 72 h (Ceritinib/LDK378): 4.5 µM
GR50, 72 h (Rucaparib): > 10 µM
GR50, 72 h (BSJ-01-175): 0.00923 µM
GR50, 72 h (Cediranib/AZD2171): > 10 µM
